Reference: patent publication US9290511B2, “Thieno-pyrimidines, useful as potassium channel inhibitors” (XENTION LIMITED, priority 2011, dated 2016)
pIC50: −log10 of the molar value.

What follows are compounds tested against T1, Kir3.1/3.4 (Rattus norvegicus, UniProt P48548+P63251) (assay: Kir3.1/3.4 Electrophysiology Method (manual whole-cell patch clamp)). Conditions: Electrophysiology Method (TABLE 1).
T1 construct: expressed in transfected cells
T1 sequence (P63251 1-501): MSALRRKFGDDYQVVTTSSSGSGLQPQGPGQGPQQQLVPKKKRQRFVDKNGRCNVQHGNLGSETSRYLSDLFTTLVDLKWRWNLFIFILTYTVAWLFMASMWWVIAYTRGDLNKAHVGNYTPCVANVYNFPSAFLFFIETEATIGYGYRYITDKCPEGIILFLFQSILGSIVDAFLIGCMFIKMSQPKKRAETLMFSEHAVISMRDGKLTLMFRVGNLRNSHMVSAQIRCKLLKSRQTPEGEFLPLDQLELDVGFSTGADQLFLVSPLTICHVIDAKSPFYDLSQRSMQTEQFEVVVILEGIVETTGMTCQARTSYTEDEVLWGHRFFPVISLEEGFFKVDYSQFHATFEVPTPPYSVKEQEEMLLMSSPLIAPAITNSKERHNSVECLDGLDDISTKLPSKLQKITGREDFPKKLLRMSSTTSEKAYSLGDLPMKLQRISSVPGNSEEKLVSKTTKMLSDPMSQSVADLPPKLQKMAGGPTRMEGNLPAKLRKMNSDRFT
T1 sequence (P48548 1-419): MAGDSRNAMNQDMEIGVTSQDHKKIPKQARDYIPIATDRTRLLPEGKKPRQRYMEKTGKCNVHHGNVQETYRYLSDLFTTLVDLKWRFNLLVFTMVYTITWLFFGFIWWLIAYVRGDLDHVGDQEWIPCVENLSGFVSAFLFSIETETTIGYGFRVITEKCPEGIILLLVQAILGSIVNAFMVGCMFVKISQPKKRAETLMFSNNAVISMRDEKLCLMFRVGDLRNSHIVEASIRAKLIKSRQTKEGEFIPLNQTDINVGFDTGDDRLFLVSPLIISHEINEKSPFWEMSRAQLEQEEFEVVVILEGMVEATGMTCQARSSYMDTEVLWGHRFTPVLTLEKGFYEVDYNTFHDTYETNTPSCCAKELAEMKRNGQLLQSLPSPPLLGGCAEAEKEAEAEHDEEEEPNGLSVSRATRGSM
Assay type: cell-based
Experimental: Compound activity against the recombinant G-protein activated inward rectifier current encoded by the heterotetramer Kir3.1/3.4 was assessed using manual whole-cell patch technique. The heterotetramer forms the pore-forming channel that conducts the acetylcholine/adenosine-activated potassium current in the heart.
For whole-cell patch-clamp studies, cells (Human Embryonic Kidney 293 stably transfected with rat Kir3.1/3.4) were seeded onto glass coverslips before recordings were made. Cells were seeded in sterile 30 mm Petri dishes at a density to enable isolated cells to be selected for patch clamp experiments. The dishes were stored in a humidified, gassed (5% CO2) incubator at 37° C. until use.
Whole-cell patch-clamp recordings of membrane currents were made following gigaohm seal formation between the patch electrode and the cell using HEKA EPC-9/10 amplifiers controlled by Pulse Software (Ver8.5x/8.6×/8.7×, HEKA, Germany). Coverslips seeded with cells were placed in a recording chamber mounted on the stage of an inverted microscope. During the experiment, the cell of interest was continuously superfused with bather solution delivered via a cannula placed in close proximity to the cell to enable control of the extracellular solution environment. Only those cells with a current <−500 pA (current at −140 mV) were used for experiments. During experiments, series resistance was compensated by a minimum of 70%.
Electrophysiology voltage-step protocols and analysis of data were performed as follows. Data was sampled at 5 kHz, and filtered with a −3 dB bandwidth of 2.5 kHz. Cells were held at a voltage of −60 mV. Currents were evoked by a depolarising voltage step to +60 mV (100 ms) before a ramp-repolarisation (0.4 V·s^−1) to −140 mV (100 ms) before returning to −60 mV. The command waveform was repeatedly applied every 10 s throughout the experiment. Mean currents during 1-99% of the time at −140 mV were analysed using Pulsefit software (v8.x, HEKA, Germany). The voltage protocol was repeatedly applied to achieve a stable current baseline in bather before the test substance was superfused via the cannula in close proximity to the cell under investigation. The test substance was allowed to equilibrate during which time voltage protocol was repeatedly applied and recorded. On reaching steady-state inhibition, the cell was superfused with an identical bather solution containing zero external potassium chloride (replaced by equimolar NaCl). The identical current measurement was made in the absence of potassium to assess the passive leak at −140 mV. The leak current was subtracted from the control and steady-state drug current values. The percentage inhibition of the leak-subtracted current in the presence of test substance was calculated relative to the control leak-subtracted pre-drug value. Internal patch-pipette solution contained in mM: 110 KCl, 20 NaCl, 0.9 GTPγS, 5 Mg-ATP, 5 EGTA, 10 HEPES, pH7.2 corrected with KOH. The external superfusate composition in mM was: 150 (or 160) NaCl, 10 (or 0) KCl, 3 CaCl2, 1 MgCl, 10 HEPES, pH 7.4 corrected with NaOH.

Row | SMILES | pIC50
1 | CN1CCCCC1CCNCC1CCN(c2ncnc3scc(-c4ccccc4)c23)CC1 (stereo not drawn) [Example 80, 2-(1-methyl-2-piperidyl)-N-[[1-(5-phenylthieno[2,3-d]pyrimidin-4-yl)-4-piperidyl]methyl]ethanamine] | > 6.30
2 | CN(C)[C@@H]1CCN(CC2CCN(c3ncnc4scc(-c5ccccc5)c34)CC2)C1 [Example 81, (3R)-N,N-dimethyl-1-[[1-(5-phenylthieno[2,3-d]pyrimidin-4-yl)-4-piperidyl]methyl]pyrrolidin-3-amine] | > 6.30
3 | CC(C)(C)OC(=O)N1CCCC1CCNCC1CCN(c2ncnc3scc(-c4ccccc4)c23)CC1 (stereo not drawn) [Example 82, tert-butyl 2-[2-[[1-(5-phenylthieno[2,3-d]pyrimidin-4-yl)-4-piperidyl]methylamino]ethyl]pyrrolidine-1-carboxylate] | > 6.30
4 | CN(CC1CCN(c2ncnc3scc(-c4ccccc4)c23)CC1)CC1CCCN1 (stereo not drawn) [Example 83, N-methyl-1-[1-(5-phenylthieno[2,3-d]pyrimidin-4-yl)-4-piperidyl]-N-(pyrrolidin-2-ylmethyl)methanamine] | > 6.30
5 | CN1CCCC1CNCC1CCN(c2ncnc3scc(-c4ccccc4)c23)CC1 (stereo not drawn) [Example 84, N-[(1-methylpyrrolidin-2-yl)methyl]-1-[1-(5-phenylthieno[2,3-d]pyrimidin-4-yl)-4-piperidyl]methanamine] | > 6.30
6 | c1ccc(-c2csc3ncnc(N4CCC(CNCCC5CCCN5)CC4)c23)cc1 (stereo not drawn) [Example 85, N-[[1-(5-phenylthieno[2,3-d]pyrimidin-4-yl)-4-piperidyl]methyl]-2-pyrrolidin-2-yl-ethanamine] | 5.52 to 6.30
7 | CN(CCC1CCCN1)CC1CCN(c2ncnc3scc(-c4ccccc4)c23)CC1 (stereo not drawn) [Example 86, N-methyl-N-[[1-(5-phenylthieno[2,3-d]pyrimidin-4-yl)-4-piperidyl]methyl]-2-pyrrolidin-2-yl-ethanamine] | > 6.30
8 | CCN1CCCC1CCN(C)CC1CCN(c2ncnc3scc(-c4ccccc4)c23)CC1 (stereo not drawn) [Example 87, 2-(1-ethylpyrrolidin-2-yl)-N-methyl-N-[[1-(5-phenylthieno[2,3-d]pyrimidin-4-yl)-4-piperidyl]methyl]ethanamine] | > 6.30
9 | CC(C)N1CCCC1CCN(C)CC1CCN(c2ncnc3scc(-c4ccccc4)c23)CC1 (stereo not drawn) [Example 88, 2-(1-isopropylpyrrolidin-2-yl)-N-methyl-N-[[1-(5-phenylthieno[2,3-d]pyrimidin-4-yl)-4-piperidyl]methyl]ethanamine] | > 6.30
10 | CC(=O)N1CCCC1CCN(C)CC1CCN(c2ncnc3scc(-c4ccccc4)c23)CC1 (stereo not drawn) [Example 89, 1-[2-[2-[methyl-[[1-(5-phenylthieno[2,3-d]pyrimidin-4-yl)-4-piperidyl]methyl]amino]ethyl]pyrrolidin-1-yl]ethanone] | 5.52 to 6.30
11 | N[C@H]1CCCN(CC2CCN(c3ncnc4scc(-c5ccccc5)c34)CC2)C1 [Example 90, (3S)-1-[[1-(5-phenylthieno[2,3-d]pyrimidin-4-yl)-4-piperidyl]methyl]piperidin-3-amine] | > 6.30
12 | CN1CC(NCC2CCN(c3ncnc4scc(-c5ccccc5)c34)CC2)CC1=O (stereo not drawn) [Example 91, 1-methyl-4-[[1-(5-phenylthieno[2,3-d]pyrimidin-4-yl)-4-piperidyl]methylamino]pyrrolidin-2-one] | 5.52 to 6.30
13 | F[C@H]1CCN(CC2CCN(c3ncnc4scc(-c5ccccc5)c34)CC2)C1 [Example 92, 4-[4-[[(3S)-3-fluoropyrrolidin-1-yl]methyl]-1-piperidyl]-5-phenyl-thieno[2,3-d]pyrimidine] | 5.52 to 6.30
14 | CN(CC(=O)N1CCCC1)CC1CCN(c2ncnc3scc(-c4ccccc4)c23)CC1 [Example 93, 2-[methyl-[[1-(5-phenylthieno[2,3-d]pyrimidin-4-yl)-4-piperidyl]methyl]amino]-1-pyrrolidin-1-yl-ethanone] | 5.52 to 6.30
15 | C=CCNCC1CCN(c2ncnc3scc(-c4ccccc4)c23)CC1 [Example 94, N-[[1-(5-phenylthieno[2,3-d]pyrimidin-4-yl)-4-piperidyl]methyl]prop-2-en-1-amine] | > 6.30
16 | OCC1CCN(CC2CCN(c3ncnc4scc(-c5ccccc5)c34)CC2)C1 (stereo not drawn) [Example 95, [1-[[1-(5-phenylthieno[2,3-d]pyrimidin-4-yl)-4-piperidyl]methyl]pyrrolidin-3-yl]methanol] | 5.52 to 6.30
17 | CC(NC1CC1)C1CCN(c2ncnc3scc(-c4ccccc4)c23)CC1 (stereo not drawn) [Example 96, N-[1-[1-(5-phenylthieno[2,3-d]pyrimidin-4-yl)-4-piperidyl]ethyl]cyclopropanamine] | > 6.30

Row | SMILES | pIC50
18 | CN1CCC(NCC2CCN(c3ncnc4scc(-c5ccccc5)c34)CC2)CC1 [Example 97, 1-methyl-N-[[1-(5-phenylthieno[2,3-d]pyrimidin-4-yl)-4-piperidyl]methyl]piperidin-4-amine] | > 6.30
19 | CC1CCC(C)N1CC1CCN(c2ncnc3scc(-c4ccccc4)c23)CC1 (stereo not drawn) [Example 98, 4-[4-[(2,5-dimethylpyrrolidin-1-yl)methyl]-1-piperidyl]-5-phenyl-thieno[2,3-d]pyrimidine] | 5.52 to 6.30
20 | FC(F)(F)C1CCN(CC2CCN(c3ncnc4scc(-c5ccccc5)c34)CC2)CC1 [Example 99, 5-phenyl-4-[4-[[4-(trifluoromethyl)-1-piperidyl]methyl]-1-piperidyl]thieno[2,3-d]pyrimidine] | 5.52 to 6.30
21 | CN1CCC[C@H]1CCNCC1CCN(c2ncnc3scc(-c4ccccc4)c23)CC1 [Example 100] | > 6.30
22 | CN(CCC1CCCN1C)CC1CCN(c2ncnc3scc(-c4ccccc4)c23)CC1 (stereo not drawn) [Example 101] | > 6.30
23 | c1ccc(-c2csc3ncnc(N4CCC(CNCCC5CCCO5)CC4)c23)cc1 (stereo not drawn) [Example 102] | > 6.30
24 | c1ccc(-c2csc3ncnc(N4CCC(CNCCC5CC5)CC4)c23)cc1 [Example 103] | > 6.30
25 | CN1CCC(CCNCC2CCN(c3ncnc4scc(-c5ccccc5)c34)CC2)C1 (stereo not drawn) [Example 104] | > 6.30
26 | O=C(CNCC1CCN(c2ncnc3scc(-c4ccccc4)c23)CC1)N1CCCC1 [Example 105] | > 6.30
27 | NC(=O)[C@@H]1CCCN1CC1CCN(c2ncnc3scc(-c4ccccc4)c23)CC1 [Example 106] | > 6.30
28 | CN1CCN(c2nc(N3CCC(CN(CCO)CCO)CC3)c3c(-c4ccccc4)csc3n2)CC1 [Example 107] | 5.52 to 6.30
29 | COCCNCC1CCN(c2nc(NCCN3CCCC3)nc3scc(-c4ccccc4)c23)CC1 [Example 109] | 5.52 to 6.30
30 | CN1CCC(N(C)CC2CCN(c3nc(NCCN4CCCC4)nc4scc(-c5ccccc5)c34)CC2)C1 (stereo not drawn) [Example 110] | > 6.30
31 | CN1CCN(c2nc(N3CCC(CN(C)C4CCN(C)C4)CC3)c3c(-c4ccccc4)csc3n2)CC1 (stereo not drawn) [Example 111] | > 6.30
32 | CN1CCC(N(C)CC2CCN(c3nc(N4CCNCC4)nc4scc(-c5ccccc5)c34)CC2)C1 (stereo not drawn) [Example 112] | > 6.30
33 | CN1CCN(c2nc(N3CCC(CNC4(CO)CCCC4)CC3)c3c(-c4ccccc4)csc3n2)CC1 [Example 113] | 5.52 to 6.30
